Measurements taken from US20040198821A1, “Reduction of hair growth” (priority 2002, published 2004).

Assays:
[1] = tested on: Carnitine palmitoyltransferase I (CPT I); test: Assay of carnitine palmitoyl transferase-I (CPT-I), Method-I; type: biochemical; details: inhibitor 5 mM, hamster flank organ hair follicle fraction
Experimental: Assay of Carnitine Palmitoyl Transferase-I (CPT-I)
Two different enzyme assays were used to quantify the activity of CPT-I in hair follicles:
Hair follicle rich fraction from hamster flank organs are homogenized in Buffer A (200 mM mannitol, 10 mM sucrose, 5 mM MOPS pH 7.4). The homogenate is centrifuged at 2000 rpm for 10 minutes. The supernatant is removed and centrifuged at 7000 rpm for 30 minutes. The pellet is resuspended in Buffer B (20 mM Tris-HCl, pH 7.4), 400 mM sucrose, 80 mM KCl, 2 mM EDTA, 2.6 mg/ml fatty acid free BSA). 30 μl of the resuspended pellet is added to 35 μl of DMSO or one of the inhibitors diluted in DMSO so that the final concentration is 5 mM. After a 15 min preincubation, the following are added; 35 μl of 1.7 mM palmitoyl Co-A (34% water and 66% Buffer B), 10 μl of 5 mM L-carnitine (in buffer B with 0.5 μCi ^3H-carnitine). The reaction is then placed in a 37° C. water bath for 30 minutes. At the end of 30 minutes the reaction is stopped by the addition of 150 μl cold 1N HCl. This is followed by the addition of 250μl water to each sample. Butanol (500 μl) is then added to each sample and the samples are centrifuged for 2 minutes at 10,000×g. 300 μl of the butanol layer is transferred to a new centrifuge tube and 250 μl of water is added. 200 μl of the organic phase is added to a scintillation vial containing 12 ml of scintillation cocktail. The radioactivity is determined using a scintillation counter.

[2] = tested on: human hair follicles; test: Human hair follicle growth assay; type: cell-based
Description: Human Hair Follicle Growth Assay
Tissue source—Human skin was obtained from a plastic surgeon as a by-product of face-lift procedures. Immediately after removal, the skin was placed in Williams E medium containing antibiotics and refrigerated. The Williams E medium is a commercially obtained medium which has been formulated with essential nutrients for maintaining viability of tissues or cells such as of hair follicle in an in-vitro environment.
Hair Follicle Isolation and Culture—Human hair follicles in growth phase (anagen) were isolated from face-lift tissue under a dissecting scope using a scalpel and watchmakers forceps. The skin was sliced into thin strips exposing 2-3 rows of follicles that could readily be dissected. Follicles were placed into 0.5 ml Williams E medium supplemented with 2 mM L-glutamine, 10 μg/ml insulin, 100 ng/ml hydrocortisone, 100 units penicillin, 0.1 mg/ml streptomycin and 0.25 μg/ml amphotericin B. The follicles were incubated in 24 well plates (1 follicle/well) at 37° C. in an atmosphere of 5% CO2 and 95% air. Hair follicles were video recorded in the 24-well plates under the dissecting scope under a power of 10×. Typically, hair follicle lengths were measured on day 0 (day follicles were placed in culture) and again on day 7. When testing compounds, the compound was included in the culture medium from time 0 and remained in the medium throughout the course of the experiment. The length of hair follicles was assessed using an image analysis software system (Jasc Image Robot).

[3] = tested on: hamster flank organ hair growth (hair mass); test: Golden Syrian hamster assay (hair mass assay); type: in vivo; details: for % Inhibition of hamster hair mass / Treated (mg) hair mass: three weeks
Description: Golden Syrian Hamster Assay
Male intact Golden Syrian hamsters are considered acceptable models for human beard hair growth in that they display oval shaped flank organs, one on each side, each about 8 mm. in major diameter. These organs produce fine light colored hair typical of the animal pelage found on the body. In response to androgens the flank organs produce dark coarse hair similar to male human beard hair. To evaluate the effectiveness of a composition in reducing hair growth, the flank organs of each of a group of hamsters are depilated by applying a thioglycolate based chemical depilatory (Surgex) and/or shaved. To one organ of each animal 10 μl. of vehicle alone once a day is applied, while to the other organ of each animal an equal amount of vehicle containing the compound under evaluation is applied. After three weeks of topical applications (one application per day for five days a week), the flank organs are shaved and the amount of recovered hair (hair mass) from each is weighed. Percent-reduction of hair growth is calculated by subtracting the hair mass (mg) value of the test compound treated side from the hair mass value of the vehicle treated side; the delta value obtained is then divided by the hair mass value of the vehicle treated side, and the resultant number is multiplied by 100.
The above-described assay will be referred to herein as the “Golden Syrian hamster” assay or “hair mass” assay. Preferred compositions provide a reduction in hair growth of at least about 15% and more preferably at least about 35%, when tested in the Golden Syrian hamster assay.

[4] = tested on: 3-ketoacyl-CoA thiolase; test: Assay of 3-ketoacyl-CoA thiolase; type: biochemical, hamster; details: inhibitor 0.5 mM, mitochondria preincubated 5 min
Experimental: Assay of 3-Ketoacyl-CoA Thiolase:
Aliquots of the mitochondrial suspension (50 μl) were rapidly frozen in dry ice and stored at −80° C. until enzyme activities were assayed as described below. To insure the complete disruption of mitochondria, Triton X-100 (0.06%) was added to all assay mixtures. The activity of thiolase was determined by spectrophotometrically following the disappearance of the Mg^2+-enolate complex at 303 nm. The enzyme assay was performed at 25° C. The reaction mixture contained 0.1 M Tris-HCl (pH 8.2), 25 mM MgCl2, 30 mM KCl, 0.06% Triton X-100, bovine serum albumin (0.13 mg/ml), 70 μM CoA and 33 μM acetoacetyl-CoA. Molar extinction coefficient of […] was used to calculate the rates determined with acetoacetyl-CoA.

[5] = tested on: Carnitine palmitoyltransferase I (CPT I); test: Assay of carnitine palmitoyl transferase-I (CPT-I), Method II (isolated mitochondrial fraction); type: biochemical, hamster; details: inhibitor 1 mM
Experimental: The enzyme activity of carnitine palmitoyl transferase-I (CPT-I) was also determined in the isolated mitochondrial fraction. Isolation of mitochondria from the hair follicle rich fraction of flank organs was accomplished by conventional differential centriftigation in 0.25 M sucrose, 10 mM Tris-HCl, pH 7.4 and 1 mM EDTA after tissues were homogenized by polytron homogenizer and Dounce tissue grinder. The pellet obtained at 7000 g was washed two times and finally suspended at 40-80 mg/ml. Carnitine palmitoyltransferase was measured as the rate of conversion of palmitoyl-CoA and [^3H]CH3-L-carnitine into palmitoyl-[^3H]CH3-1-carnitine. The incubation mixture initially contained 12.5 μmol of Tris-HCl (pH 7.2), 15 μmol of KCl, 3.1 μmol of KCN, 6.2 μmol of glutathione, 15 nmol of CoA, […], 2 μmol of ATP (pH 6.8) in volume of 0.425 ml. To this mixture 50 μl of mitochondria were added, followed by preincubation at 37° C. for 10 minutes in the presence or absence of the enzyme inhibitor methyl palmoxirate (dissolved in DMSO). After preincubation, the enzyme reaction was initiated by the addition of 25 μl of 2 mM palmitoyl-CoA and 25 μl of 4 mM [^3H]CH3-L-carnitine. The reaction was stopped after 30 minutes with 1 ml 1N HCl and palmitoyl-[^3H]CH3-L-carnitine was extracted into n-butanol. The radioactivity was determined using scintillation spectrometry.

[6] = 1 mM in culture medium, day 0 to day 7

CCCCNC(=O)NS(=O)(=O)c1ccc(C)cc1 [tolbutamide]
% inhibition of CPT I [1]: 90% | pmol product /mg protein (CPT I activity) [1]: 0.07 pmol product /mg protein

CCCCCCCCC1=C(CCCCCCCC(=O)OC)C1 [methyl sterculate]
% Inhibition of human hair follicle growth [2, 6]: 59.3 ± 0.2% | Hair follicle length increase (mm) [2, 6]: 0.59 ± 0.29 mm | reduction of hair growth in vitro (in words) ([2]; text summary of Table IX): can reduce hair growth both in vivo and in vitro | reduction of hair growth in vivo (in words) ([3]; text summary of Table VIII): can reduce hair growth both in vivo and in vitro | % Inhibition of hamster hair mass ([3]; topical dose 2.5%, vehicle E): 45.1 ± 6.8% | Treated (mg) hair mass ([3]; topical dose 2.5%, vehicle E): 1.4 ± 0.2 mg

COc1ccc(Cl)cc1C(=O)NCCc1ccc(S(=O)(=O)NC(=O)NC2CCCCC2)cc1 [glynbenclamide]
% inhibition of CPT I [1]: 100% | pmol product /mg protein (CPT I activity) [1]: 0.00 pmol product /mg protein | % Inhibition of hamster hair mass ([3]; topical dose 10.0%, vehicle D): 32 ± 8% | Treated (mg) hair mass ([3]; topical dose 10.0%, vehicle D): 1.40 ± 0.32 mg

CC(C)(COP(=O)(O)OP(=O)(O)OC[C@H]1O[C@@H](n2cnc3c(N)ncnc32)[C@H](O)[C@@H]1OP(=O)(O)O)[C@@H](O)C(=O)NCCC(=O)NCCSC(=O)CC(=O)O [malonyl CoA]
% inhibition of CPT I [1]: 22% | pmol product /mg protein (CPT I activity) [1]: 0.59 pmol product /mg protein

O=C(O)/C=C/CBr [4-bromocrotonic acid]
Hair follicle length increase (mm) ([2]; 0.03 mM in culture medium, day 0 to day 7): 0.06 ± 0.06 mm | inhibition at 30 µM ([2]; Homo sapiens, 0.03 mM in culture medium, day 0 to day 7): 95 ± 5% | % Inhibition of hamster hair mass ([3]; topical dose 3.0%, vehicle B): 37 ± 14% | Treated (mg) hair mass ([3]; topical dose 3.0%, vehicle B): 1.25 ± 0.37 mg | % inhibition of 3-ketoacyl-CoA thiolase [4]: 85.2% | nmol product/mg protein (3-ketoacyl-CoA thiolase activity) [4]: 0.128 nmol product/mg protein

CCCCc1oc2ccccc2c1C(=O)c1cc(I)c(OCCN(CC)CC)c(I)c1 [amiodarone]
% Inhibition of hamster hair mass ([3]; topical dose 7.5%, vehicle A): 44 ± 28% | Treated (mg) hair mass ([3]; topical dose 7.5%, vehicle A): 1.62 ± 0.9 mg

CCCCCCCCCC(=O)OC(CC(=O)O)C[N+](C)(C)C.[Cl-] (racemic) [DL-decanoylcarnitine chloride]
% Inhibition of hamster hair mass ([3]; topical dose 10.0%, vehicle B): 58 ± 5% | Treated (mg) hair mass ([3]; topical dose 10.0%, vehicle B): 0.94 ± 0.12 mg

C=CCCC(=O)O [4-pentenoic acid]
% Inhibition of hamster hair mass ([3]; topical dose 10.0%, vehicle A): 46 ± 8% | Treated (mg) hair mass ([3]; topical dose 10.0%, vehicle A): 1.10 ± 0.12 mg

C1CCC(C(CC2CCCCN2)C2CCCCC2)CC1 (centres unmarked) [perhexiline]
% inhibition of CPT I [1]: 86% | pmol product /mg protein (CPT I activity) [1]: 0.10 pmol product /mg protein | % Inhibition of hamster hair mass ([3]; topical dose 2.5%, vehicle B): 23 ± 25% | Treated (mg) hair mass ([3]; topical dose 2.5%, vehicle B): 2.28 ± 0.77 mg

C/C=C/C/C=C/CCC(=O)[C@H]1O[C@H]1C(N)=O [cerulenin]
Hair follicle length increase (mm) ([2]; 10 μM in culture medium, day 0 to day 7): 0.06 ± 0.05 mm | inhibition at 10 µM ([2]; Homo sapiens, 10 μM in culture medium, day 0 to day 7): 93.7 ± 5.6% | inhibition of human hair follicle growth in vitro (in words) ([2]; text summary of Table VII): can inhibit human hair follicle growth in vitro with marked efficacy

CCCCCCCCCCCCCCCC(=O)OC(CC(=O)[O-])C[N+](C)(C)C (stereo not drawn) [palmitoyl DL carnitine]
% Inhibition of hamster hair mass ([3]; topical dose 10.0%, vehicle A): 73 ± 15% | Treated (mg) hair mass ([3]; topical dose 10.0%, vehicle A): 0.29 ± 0.1 mg

CCCCCCCCCCCCCCC(Br)C(=O)O (centres unmarked) [2-bromopalmitic acid]
% inhibition of CPT I [1]: 91% | pmol product /mg protein (CPT I activity) [1]: 0.07 pmol product /mg protein

N[C@H](C(=O)O)c1ccc(O)cc1 [oxfenicine]
% inhibition of CPT I [5]: 44% | pmol product /mg protein (CPT I activity) [5]: 0.64 pmol product/mg protein

CCCC(CCC)C(=O)O [2-propylpentanoic acid]
% Inhibition of hamster hair mass ([3]; topical dose 20.0%, vehicle A): 67 ± 3% | Treated (mg) hair mass ([3]; topical dose 20.0%, vehicle A): 2.68 ± 0.20 mg

CCCCCCCCCCCCCCC1(C(=O)OC)CO1 (centres unmarked) [methyl palmoxirate, methyl-2-tetradecylglycidate]
Hair follicle length increase (mm) ([2]; 0.1 mM in culture medium, day 0 to day 7): 0.54 ± 0.3 mm | inhibition at 100 µM ([2]; Homo sapiens, 0.1 mM in culture medium, day 0 to day 7): 57 ± 24% | % Inhibition of hamster hair mass ([3]; topical dose 2.0%, vehicle B): 66 ± 4% | Treated (mg) hair mass ([3]; topical dose 2.0%, vehicle B): 0.56 ± 0.12 mg

CC(C)(C)c1ccc(C(=O)O)cc1 [4-tert-butylbenzoic acid]
% Inhibition of hamster hair mass ([3]; topical dose 10.0%, vehicle C): 46 ± 8% | Treated (mg) hair mass ([3]; topical dose 10.0%, vehicle C): 1.10 ± 0.12 mg
